According to patent publication US20080161309A1, “Novel Compounds” (priority 2004, published 2008):
Counter-ions that a name gives are not always drawn. Like-named read-outs stand apart in the source and are kept apart here.

Columns and labels:
[1] = system: capsaicin-induced mechanical allodynia; test: Rat model of capsaicin-induced mechanical allodynia; assay type: in vivo; details: sc, read-out: % Inhibition of allodynia
Description: Compounds of the present invention may be assayed for their ability to treat fibromylagia—like pain in a rat model of capsaicin-induced mechanical allodynia (e.g., Sluka, K A, (2002) J of Neuroscience, 22(13): 5687-5693). For example, a rat model of capsaicin-induced mechanical allodynia) was be carried out as follows:
On day 0, male Sprague-Dawley rats (˜150 g) in the dark cycle were placed in suspended wire-bottom cages and allowed to acclimate for 0.5 hour in a darkened, quiet room. The day 0 paw withdrawal threshold (PWT) was determined on the left hind paw by Von Frey hair assessment using the Dixon up and down method. After assessment, the plantar muscle of the right hind paw was injected with 100 μl capsaicin (0.25% (w/v) in 10% ethanol, 10% Tween 80, in sterile saline). On day 6 the PWT of the left hindpaw (contralateral from injection site) was determined for each animal. Animals from the day 6 prereads with PWT≦11.7 g were considered allodynic responders and were regrouped so that each cage had similar mean PWT values. On day 7, responders were dosed subcutaneously with 10 mg compound/kg body weight, or with vehicle alone. The vehicle was phosphate buffered saline containing 2% Cremophor® EL (BASF). The contralateral PWT values were determined at 1 hour after the single dose, with the investigator blinded to the dosing scheme.
In addition, the day 6 PWT was subtracted from the day 0 PWT to give the baseline window of allodynia present in each animal.

[2] = molecular target: T1, human serotonin transporter (hSERT) (Homo sapiens, UniProt P31645); test: hSERT receptor binding, [125I]-RTI-55, HEK-293 membranes
T1 construct: expressed in transfected cells; host or cells: HEK-293, membranes
Description: Cell pastes of HEK-293 cells transfected with a human serotonin transporter cDNA were prepared. […] Aliquots of membranes (−2.5 mg/ml protein) were stored in liquid nitrogen until used.
The reaction was incubated and gently agitated for 90 minutes at room temperature, and terminated by removal of assay volume. […] Test compounds were run in duplicate, and specific binding was defined as the difference between binding in the presence and absence of 10 μM citalopram. Excel and GraphPad Prism software were used for data calculation and analysis. IC50 values were converted to Ki values using the Cheng-Prusoff equation.

[3] = molecular target: T2, human norepinephrine transporter (hNET) (Homo sapiens, UniProt P23975); test: hNET receptor binding, [125I]-RTI-55, HEK-293 membranes; details: Cheng-Prusoff, read-out: NET Ki
T2 construct: expressed in transfected cells; host or cells: HEK-293, membranes
Description: Cell pastes of HEK-293 cells transfected with a human norepinephrine transporter cDNA were prepared. The cell pastes were resuspended in 400 to 700 ml of Krebs-HEPES assay buffer (25 mM HEPES, 122 mM NaCl, 3 mM KCl, 1.2 mM MgSO4, 1.3 mM CaCl2, and 11 mM glucose, pH 7.4) with a Polytron homogenizer at setting 7 for 30 seconds. Aliquots of membranes (5 mg/ml protein) were stored in liquid nitrogen until used.
The binding assay was set up in Beckman deep-well polypropylene plates with a total volume of 250 μl containing: drug (10^−5M to 10^−12M), cell membranes, and […] [^125I]-RTI-55 (Perkin Elmer, NEX-272; specific activity 2200 Ci/mmol). The reaction was incubated by gentle agitation for 90 minutes at room temperature and was terminated by filtration through Whatman GF/C filter plates using a Brandel 96-well plate harvester. Scintillation fluid (100 μl) was added to each well, and bound [^125I]-RTI-55 was determined using a Wallac Trilux Beta Plate Counter. Test compounds were run in duplicate, and specific binding was defined as the difference between binding in the presence and absence of 10 μM desipramine.
Excel and GraphPad Prism software were used for data calculation and analysis. IC50 values were converted to Ki values using the Cheng-Prusoff equation. The Ki values (nM) for the hNET are reported below in Table 1.

[4] = [125I]-RTI-55, HEK-293 membranes, Cheng-Prusoff, read-out: SERT Ki
[5] = male Sprague-Dawley rats, 10 mg/kg subcutaneously, PWT 1 hour after single dose, mean of eight animals, normalized for vehicle

T2 sequence (P23975 whole entry): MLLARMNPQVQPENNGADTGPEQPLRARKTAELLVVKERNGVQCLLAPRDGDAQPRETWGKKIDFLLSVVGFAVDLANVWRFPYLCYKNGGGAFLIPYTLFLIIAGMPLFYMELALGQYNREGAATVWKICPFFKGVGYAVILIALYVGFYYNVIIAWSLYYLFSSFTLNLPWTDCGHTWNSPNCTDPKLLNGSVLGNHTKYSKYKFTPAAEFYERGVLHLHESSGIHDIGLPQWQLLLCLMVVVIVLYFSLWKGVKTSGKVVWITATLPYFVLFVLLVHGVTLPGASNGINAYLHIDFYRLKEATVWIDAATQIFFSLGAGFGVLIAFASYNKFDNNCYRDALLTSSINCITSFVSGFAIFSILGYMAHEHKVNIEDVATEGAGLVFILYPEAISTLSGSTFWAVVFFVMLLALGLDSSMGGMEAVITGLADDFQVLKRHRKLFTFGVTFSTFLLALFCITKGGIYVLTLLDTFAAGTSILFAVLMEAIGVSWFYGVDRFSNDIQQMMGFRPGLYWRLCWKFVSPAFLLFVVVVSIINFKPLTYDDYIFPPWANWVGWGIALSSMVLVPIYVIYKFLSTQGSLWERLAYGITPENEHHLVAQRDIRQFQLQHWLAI
T1 sequence (P31645 whole entry): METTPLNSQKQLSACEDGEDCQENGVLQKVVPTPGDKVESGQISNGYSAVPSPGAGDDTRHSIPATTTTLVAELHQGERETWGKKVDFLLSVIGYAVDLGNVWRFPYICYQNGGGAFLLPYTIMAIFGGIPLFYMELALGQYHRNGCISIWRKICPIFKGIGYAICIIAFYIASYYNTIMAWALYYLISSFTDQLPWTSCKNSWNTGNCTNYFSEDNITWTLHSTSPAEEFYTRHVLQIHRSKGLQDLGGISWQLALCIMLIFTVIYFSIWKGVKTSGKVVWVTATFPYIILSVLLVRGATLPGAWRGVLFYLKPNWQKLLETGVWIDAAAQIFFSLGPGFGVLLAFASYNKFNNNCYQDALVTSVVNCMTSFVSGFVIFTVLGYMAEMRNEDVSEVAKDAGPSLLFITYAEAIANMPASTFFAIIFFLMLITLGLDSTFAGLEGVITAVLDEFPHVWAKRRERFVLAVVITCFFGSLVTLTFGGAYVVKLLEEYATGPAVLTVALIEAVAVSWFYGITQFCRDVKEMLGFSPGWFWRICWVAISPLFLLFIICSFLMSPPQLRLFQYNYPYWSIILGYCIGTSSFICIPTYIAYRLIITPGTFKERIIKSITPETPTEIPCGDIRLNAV

Ki [2, 4] [nM]	Ki [3] [nM]	Compound	inhibition in vivo at 10 mg/kg ([1]; 1 h) [%]	inhibition in vivo at 10 mg/kg [1, 5] [%]	Ki [2] [nM]
26.7	228	COc1c(Cl)c(Cl)cc(Cl)c1O[C@@H](c1ccccc1)[C@@H]1CNCCO1 [Example 91, (2S)-2-[(1S)-Phenyl-(3,4,6-trichloro-2-methoxyphenoxy)methyl] morpholine fumarate]	–	–	–
71.7	86.8	COc1c(Cl)cccc1O[C@@H](c1ccccc1)[C@@H]1CNCCO1 [Example 92, (2S)-2-[(1S)-(3-Chloro-2-methoxyphenoxy)phenylmethyl] morpholine fumarate]	–	–	–
47	25.7	COc1ccc(O[C@@H](c2ccccc2)[C@@H]2CNCCO2)c(Cl)c1 [Example 96, (2S)-2-[(1S)-(2-Chloro-4-methoxyphenoxy)phenylmethyl] morpholine fumarate]	–	–	–
134	42.5	COc1ccc(Cl)c(O[C@@H](c2ccccc2)[C@@H]2CNCCO2)c1 [Example 97, (2S)-2-[(1S)-(2-Chloro-5-methoxyphenoxy)phenylmethyl] morpholine fumarate]	–	–	–
49.6	755	Clc1cc(Cl)c(O[C@@H](c2ccccc2)[C@@H]2CNCCO2)c(Cl)c1 [Example 98, (2S)-2-[(1S)-Phenyl-(2,4,6-trichlorophenoxy)methyl] morpholine fumarate]	–	–	–
35.8	188	COc1cc(C(F)(F)F)ccc1O[C@@H](c1ccccc1)[C@@H]1CNCCO1 [Example 99, (2S)-2-[(1S)-(2-Methoxy-4-trifluoromethylphenoxy)phenylmethyl] morpholine fumarate]	–	–	–
32.9	33	COc1cc(Cl)ccc1O[C@@H](c1cccc(Cl)c1)[C@@H]1CNCCO1 [Example 100, (2S)-2-[(1S)-(4-Chloro-2-methoxyphenoxy) (3-chloro phenyl)methyl] morpholine fumarate]	–	–	–
67.1	19.4	COc1cc(C)ccc1O[C@@H](c1cccc(Cl)c1)[C@@H]1CNCCO1 [Example 101, (2S)-2-[(1S)-(3-Chlorophenyl) (2-methoxy-4-methyl phenoxy)methyl] morpholine fumarate]	–	–	–
101	12.8	COc1cc(Cl)ccc1O[C@@H](c1ccccn1)[C@@H]1CNCCO1 [Example 103, (2S)-2-[(1S)-(4-chloro-2-methoxyphenoxy)(pyridin-2-yl)methyl]morpholine fumarate]	–	–	–
486	21.1	Fc1cc(Cl)ccc1O[C@@H](c1ccccn1)[C@@H]1CNCCO1 [Example 104, (2S)-2-[(1S)-(4-chloro-2-fluorophenoxy)(pyridin-2-yl)methyl]morpholine fumarate]	–	–	–
216	13.8	COc1ccc(O[C@@H](c2ccccn2)[C@@H]2CNCCO2)c(Cl)c1 [Example 106, (2S)-2-[(1S)-(2-chloro-4-methoxyphenoxy)(pyridin-2-yl)methyl]morpholine fumarate]	–	–	–

Continued, compound first:

Compound	Ki [2, 4] [nM]	Ki [3] [nM]	inhibition in vivo at 10 mg/kg ([1]; 1 h) [%]	inhibition in vivo at 10 mg/kg [1, 5] [%]	Ki [2] [nM]
CCOc1ccccc1O[C@@H](c1ccccc1)[C@@H]1CNCCO1 [(2S)-2-[(1S)-(2-ethoxyphenoxy)(phenyl)methyl]morpholine, reference compound]	–	–	17	–	–
Fc1cccc([C@H](Oc2ccc(F)cc2Cl)[C@@H]2CNCCO2)c1 [Example 37, (2S)-2-[(1S)-(2-chloro-4-fluorophenoxy)-(3-fluorophenyl)methyl]morpholine hydrochloride]	52.2	13.1	–	80.3	–
Fc1cccc([C@H](Oc2cc(F)ccc2Cl)[C@@H]2CNCCO2)c1 [Example 41, (2S)-2-[(1S)-(2-Chloro-5-fluorophenoxy)(3-fluorophenyl)methyl] morpholine hydrochloride]	126	7.3	–	21.1	–
COc1cc(Cl)ccc1O[C@@H](c1cccc(F)c1)[C@@H]1CNCCO1 [Example 45, (2S)-2-[(1S)-(4-Chloro-2-methoxyphenoxy)(3-fluorophenyl)methyl] morpholine hydrochloride]	–	10.5	54.6	–	30
COc1cc(F)ccc1O[C@@H](c1cccc(F)c1)[C@@H]1CNCCO1 [Example 46, (2S)-2-[(1S)-(4-Fluoro-2-methoxyphenoxy)(3-fluorophenyl)methyl] morpholine hydrochloride]	222	15.1	–	46.1	–
Fc1cccc([C@H](Oc2cc(F)cc(F)c2Cl)[C@@H]2CNCCO2)c1 [Example 48, (2S)-2-[(1S)-(2-Chloro-3,5-difluorophenoxy)(3-fluorophenyl)methyl] morpholine hydrochloride]	80	16.5	–	6.5	–
COc1cc(F)ccc1O[C@@H](c1cccc(Cl)c1)[C@@H]1CNCCO1 [Example 52, (2S)-2-[(1S)-(3-Chlorophenyl) (4-fluoro-2-methoxyphenoxy)methyl] morpholine hydrochloride]	194	549	–	7	–
Cc1cccc([C@H](Oc2ccc(F)cc2Cl)[C@@H]2CNCCO2)c1 [Example 56, (2S)-2-[(1S)-(2-Chloro-4-fluorophenoxy)-m-tolyl-methyl] morpholine hydrochloride]	152	13.6	–	35.6	–
COc1cccc([C@H](Oc2ccc(C)cc2OC)[C@@H]2CNCCO2)c1 [Example 62, (2S)-2-[(1S)-(2-Methoxy-4-methylphenoxy) (3-methoxyphenyl)methyl] morpholine hydrochloride]	153	15.3	–	40.5	–
COc1cccc([C@H](Oc2ccc(F)cc2Br)[C@@H]2CNCCO2)c1 [Example 70, (2S)-2-[(1S)-(2-Bromo-4-fluorophenoxy) (3-methoxyphenyl)methyl] morpholine hydrochloride]	111	11.9	–	27.3	–
COc1cc(C)ccc1O[C@@H](c1cccc(F)c1)[C@@H]1CNCCO1 [Example 79, (2S)-2-[(1S)-(3-Fluorophenyl)(2-methoxy-4-methylphenoxy)-methyl]morpholine hydrochloride]	100	12.6	–	99.5	–
Fc1c(Cl)cccc1O[C@@H](c1ccccc1)[C@@H]1CNCCO1 [Example 80, (2S)-2-[(1S)-(3-chloro-2-fluoro-phenoxy)-phenyl-methyl]-morpholine fumarate salt]	127	4.4	–	40	–
Fc1cc(F)c(O[C@@H](c2ccccc2)[C@@H]2CNCCO2)c(F)c1 [Example 86, (2S)-2-[(1S)-Phenyl-(2,4,6-trifluorophenoxy)methyl] morpholine fumarate]	652	14.3	–	–	–
FC(F)(F)c1ccc(Cl)c(O[C@@H](c2ccccc2)[C@@H]2CNCCO2)c1 [Example 88, (2S)-2-[(1S)-(2-Chloro-5-trifluoromethylphenoxy)phenylmethyl] morpholine fumarate]	760	420	–	–	–
COc1cc(Br)ccc1O[C@@H](c1ccccc1)[C@@H]1CNCCO1 [Example 94, (2S)-2-[(1S)-(4-Bromo-2-methoxyphenoxy)phenylmethyl] morpholine fumarate]	22.3	12.1	–	–	–
(2S)-2-[(1S)-Pentachlorophenyloxy phenyl methyl] morpholine fumarate [Example 95]	39.6	587	–	–	–
